Results on one compound are retold here after publication PMC3404738 (International journal for parasitology, drugs and drug …, 2012).

The experiment has as its system A. ceylanicum. Briefly: In vivo treatment in the hamster model of hookworm infection. More on the design: species or system Ancylostoma ceylanicum. The note with it: ABZ 10mg/kg once orally, hamsters, 20 DPI, vs infected controls.

With `CCCSc1ccc2nc(NC(=O)OC)[nH]c2c1` [Albendazole, reference compound], the Intestinal worm burdens result is given as “eliminated intestinal worm burdens”.
